From patent US20210078988A1, “MODULATORS OF INDOLEAMINE 2,3-DIOXYGENASE” (GLAXOSMITHKLINE INTELLECTUAL PROPERTY DEVELOPMENT LIMITED, priority 2017, published 2021)

Target: T1, indoleamine 2, 3-dioxygenase (IDO1) (Homo sapiens, UniProt P14902)
T1 construct: human peripheral blood mononuclear cells (PBMC) (PB003F; host or cells: human PBMC stimulated with IFN-gamma and LPS
Assay: PBMC IDO1 assay (kynurenine detection via mass spectrometry)
Format: cell-based
Conditions: human PBMC stimulated with IFN-γ and LPS, 2 days, kynurenine by mass spectrometry; read-out: IDO1 PBMC pIC50 (converted)
How it was run: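 Human PBMCs (50,000/well) stimulated with IFN-γ 100 ng/ml and LPS 50 ng/ml were exposed to 11-point 3-fold compound dilutions for 2 days at 37 °C. Supernatant kynurenine was quantified by RapidFire MS relative to an internal standard; parallel CellTiter-Glo ATP luminescence measured cytotoxicity, with four-parameter curve fitting.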

T1 sequence (P14902 whole entry): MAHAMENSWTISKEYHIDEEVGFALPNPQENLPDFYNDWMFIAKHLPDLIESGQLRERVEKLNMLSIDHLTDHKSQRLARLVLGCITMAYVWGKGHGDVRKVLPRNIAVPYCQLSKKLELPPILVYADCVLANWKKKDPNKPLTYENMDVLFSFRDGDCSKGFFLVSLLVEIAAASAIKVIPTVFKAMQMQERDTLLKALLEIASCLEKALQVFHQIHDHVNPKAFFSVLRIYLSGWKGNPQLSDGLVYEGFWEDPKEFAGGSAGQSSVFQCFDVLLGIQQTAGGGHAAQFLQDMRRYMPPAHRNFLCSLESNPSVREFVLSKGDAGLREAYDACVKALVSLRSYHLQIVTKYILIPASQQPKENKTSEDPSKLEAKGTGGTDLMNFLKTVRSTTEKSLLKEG

| Structure (SMILES) | IC50 |
| --- | --- |
| Cc1cc(C(=O)NC(CC2CCN(C(=O)OC(C)(C)C)CC2)c2ccccc2)ccc1F (centres unmarked) [Example 213, tert-butyl 4-(2-(4-fluoro-3-methylbenzamido)-2-phenylethyl)piperidine-1-carboxylate] | 398 nM |
| CC(C)(C)OC(=O)N1CCC(C[C@@H](NC(=O)c2ccc(Cl)s2)C2CC2)CC1 [Example 214, (R)-tert-butyl 4-(2-(5-chlorothiophene-2-carboxamido)-2-cyclopropylethyl)piperidine-1-carboxylate] | 398 nM |
| O=C(NC(CC1CCN(S(=O)(=O)c2ccccc2)CC1)c1ccccc1)c1ccc(Cl)cc1 (centres unmarked) [Example 215, 4-chloro-N-(1-phenyl-2-(1-(phenylsulfonyl)piperidin-4-yl)ethyl)benzamide] | 398 nM |
| COc1cccc(C(=O)NC(CC2CCN(C(=O)OC(C)(C)C)CC2)c2ccccc2)c1 (centres unmarked) [Example 216, tert-butyl 4-(2-(3-methoxybenzamido)-2-phenylethyl)piperidine-1-carboxylate] | 501 nM |
| Cc1ccc(C(=O)NC(CC2CCN(C(=O)OC(C)(C)C)CC2)c2ccccc2)cn1 (centres unmarked) [Example 217, tert-butyl 4-(2-(6-methylnicotinamido)-2-phenylethyl)piperidine-1-carboxylate] | 501 nM |
| Cc1ccc(C(=O)NC(CC2CCN(C(=O)OC(C)(C)C)CC2)c2ccccc2)c(F)c1 (centres unmarked) [Example 218, tert-butyl 4-(2-(2-fluoro-4-methylbenzamido)-2-phenylethyl)piperidine-1-carboxylate] | 501 nM |
| CC(C)(C)OC(=O)N1CCC(CC(NC(=O)c2ccccc2F)c2ccccc2)CC1 (centres unmarked) [Example 219, tert-butyl 4-(2-(2-fluorobenzamido)-2-phenylethyl)piperidine-1-carboxylate] | 501 nM |
| CC(C)(C)OC(=O)N1CCC(CC(NC(=O)c2ccc[nH]2)c2ccccc2)CC1 (centres unmarked) [Example 220, tert-butyl 4-(2-phenyl-2-(1H-pyrrole-2-carboxamido)ethyl)piperidine-1-carboxylate] | 501 nM |
| CC(C)(C)OC(=O)N1CCC(CC(NC(=O)c2ccc(F)cc2)c2nnc(C3CC3)o2)CC1 (centres unmarked) [Example 221, tert-butyl 4-(2-(5-cyclopropyl-1,3,4-oxadiazol-2-yl)-2-(4-fluorobenzamido)ethyl)piperidine-1-carboxylate] | 501 nM |
| CC(=O)N1CCC(CC(NC(=O)c2ccc(Cl)cc2)c2ccccc2)CC1 (centres unmarked) [Example 222, N-(2-(1-acetylpiperidin-4-yl)-1-phenylethyl)-4-chlorobenzamide] | 501 nM |
| CC(C)c1nnc(C(CC2CCN(C(=O)OC(C)(C)C)CC2)NC(=O)c2ccc(F)cc2)o1 (centres unmarked) [Example 223, tert-butyl 4-(2-(4-fluorobenzamido)-2-(5-isopropyl-1,3,4-oxadiazol-2-yl)ethyl)piperidine-1-carboxylate] | 501 nM |
| CC(C)(C)OC(=O)N1CCC(CC(NC(=O)c2ccc(Cl)s2)c2n[nH]c(=O)o2)CC1 (centres unmarked) [Example 224, tert-butyl 4-(2-(5-chlorothiophene-2-carboxamido)-2-(5-oxo-4,5-dihydro-1,3,4-oxadiazol-2-yl)ethyl)piperidine-1-carboxylate] | 501 nM |
| CC(C)CNCC(CC1CCN(C(=O)OC(C)(C)C)CC1)NC(=O)c1ccc(F)cc1 (centres unmarked) [Example 225, tert-butyl 4-(2-(4-fluorobenzamido)-3-(isobutylamino)propyl)piperidine-1-carboxylate] | 501 nM |
| CC(C)(C)OC(=O)N1CCC(CC(NC(=O)c2ccc(F)cc2)c2ccccn2)CC1 (centres unmarked) [Example 226, tert-butyl 4-(2-(4-fluorobenzamido)-2-(pyridin-2-yl)ethyl)piperidine-1-carboxylate] | 631 nM |
| CC(C)Cc1ccc(C(=O)NC(CC2CCN(C(=O)OC(C)(C)C)CC2)c2ccccc2)s1 (centres unmarked) [Example 227, tert-butyl 4-(2-(5-isobutylthiophene-2-carboxamido)-2-phenylethyl)piperidine-1-carboxylate] | 631 nM |
| CC(C)(C)OC(=O)N1CCC(CC(NC(=O)c2ccco2)c2ccccc2)CC1 (centres unmarked) [Example 228, tert-butyl 4-(2-(furan-2-carboxamido)-2-phenylethyl)piperidine-1-carboxylate] | 631 nM |
| CC(C)(C)OC(=O)N1CCC(C[C@H](Nc2ccnc(Cl)n2)C2CC2)CC1 [Example 229, (S)-tert-butyl 4-(2-((2-chloropyrimidin-4-yl)amino)-2-cyclopropylethyl)piperidine-1-carboxylate] | 631 nM |
| O=C(NC(CC1CCN(C(=O)N2CCCCC2)CC1)c1ccccc1)c1ccc(Cl)cc1 (centres unmarked) [Example 230, 4-chloro-N-(1-phenyl-2-(1-(piperidine-1-carbonyl)piperidin-4-yl)ethyl)benzamide] | 631 nM |
| CCNCC[C@H](CC1CCN(C(=O)OC(C)(C)C)CC1)NC(=O)c1ccc(Cl)s1 [Example 231, (S)-tert-butyl 4-(2-(5-chlorothiophene-2-carboxamido)-4-(ethylamino)butyl)piperidine-1-carboxylate] | 631 nM |
| CC(C)(C)OC(=O)N1CCC(CC(NC(=O)C2CCCC2)c2ccccc2)CC1 (centres unmarked) [Example 232, tert-butyl 4-(2-(cyclopentanecarboxamido)-2-phenylethyl)piperidine-1-carboxylate] | 794 nM |
| CC1CCC(C(=O)NC(CC2CCN(C(=O)OC(C)(C)C)CC2)c2ccccc2)CC1 (centres unmarked) [Example 233, tert-butyl 4-(2-(4-methylcyclohexanecarboxamido)-2-phenylethyl)piperidine-1-carboxylate] | 794 nM |
| CC(C)(C)OC(=O)N1CCC(C[C@@H](NC(=O)c2ccc(Cl)cc2)c2ccccc2)CC1 [Example 234, (R)-tert-butyl 4-(2-(4-chlorobenzamido)-2-phenylethyl)piperidine-1-carboxylate] | 794 nM |
| COCCNCC(CC1CCN(C(=O)OC(C)(C)C)CC1)NC(=O)c1ccc(F)cc1 (centres unmarked) [Example 235, tert-butyl 4-(2-(4-fluorobenzamido)-3-((2-methoxyethyl)amino)propyl)piperidine-1-carboxylate] | 794 nM |
